{
  "source": "patent US8546579B2",
  "about": "“Bicycloheteroaryl compounds as P2X7 modulators and uses thereof” (Evotec (US) Inc., priority 2006, dated 2013)",
  "molecular_target": "T1, P2X7 receptor (Homo sapiens, UniProt Q99572)",
  "T1 construct": "host or cells: THP-1 cells differentiated with LPS and IFN-γ",
  "T1 sequence (Q99572 1-595)": "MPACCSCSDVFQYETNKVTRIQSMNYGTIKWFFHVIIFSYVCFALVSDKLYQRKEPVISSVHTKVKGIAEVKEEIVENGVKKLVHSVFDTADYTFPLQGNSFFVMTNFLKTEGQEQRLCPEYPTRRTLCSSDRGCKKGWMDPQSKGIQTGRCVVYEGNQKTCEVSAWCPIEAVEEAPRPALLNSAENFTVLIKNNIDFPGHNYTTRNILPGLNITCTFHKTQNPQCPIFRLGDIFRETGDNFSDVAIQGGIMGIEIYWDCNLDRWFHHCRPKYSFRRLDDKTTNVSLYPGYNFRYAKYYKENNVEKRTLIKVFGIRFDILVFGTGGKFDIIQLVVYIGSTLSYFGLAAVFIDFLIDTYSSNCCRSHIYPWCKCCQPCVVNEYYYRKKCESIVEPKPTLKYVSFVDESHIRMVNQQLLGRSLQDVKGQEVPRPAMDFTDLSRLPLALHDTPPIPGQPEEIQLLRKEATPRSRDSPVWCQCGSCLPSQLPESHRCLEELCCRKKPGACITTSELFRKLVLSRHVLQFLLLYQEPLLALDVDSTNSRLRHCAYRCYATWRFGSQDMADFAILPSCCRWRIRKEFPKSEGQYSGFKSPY",
  "experiment": "IL-1β release assay in differentiated THP-1 cells stimulated with BzATP (Example 9)",
  "type": "cell-based",
  "set-up": "inhibition: dose or concentration left out as unconfirmed",
  "details": "for inhibition at 0.3 µM: 0.3 μM compound, symbols + to ++++, read-out: IL-1β % Inhib. @ 0.3 μM; for inhibition at 0.3 µM / inhibition at 0.1 µM: differentiated THP-1 cells, BzATP 250 uM; for IC50: THP-1 cells, BzATP-stimulated IL-1β release, four parameter logistic fit; for inhibition at 0.1 µM: 0.1 μM compound, symbols * to ****, read-out: IL-1β % Inhib. (asterisk symbols: at 0.1 μM); for inhibition: THP-1, read-out: IL-1β % Inhib.",
  "method_in_brief": "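IC50 derived by four-parameter logistic fit of percent inhibition of IL-1β release, measured by ELISA after 45 min stimulation with 250 uM BzATP. Cells: THP-1 differentiated 16 h with 100 ng/mL LPS plus IFN-γ, LPS-primed 2 h, compound added 30 min beforehand.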",
  "data": [
    {"smiles": "CC(=O)OCCn1ccc2c(NC(=O)CCc3ccc(S(C)(=O)=O)cc3)cccc2c1=O", "note": "[Compound 1383]", "values": [
      {"measurement": "inhibition at 0.3 µM", "value": "0 to 25", "unit": "%"},
      {"measurement": "IC50", "value": "> 1000", "unit": "nM"}
    ]},
    {"smiles": "CC(=O)OCCn1ccc2c(NC(=O)Cc3ccc(S(C)(=O)=O)cc3)cccc2c1=O", "note": "[Compound 1384]", "values": [
      {"measurement": "inhibition at 0.3 µM", "value": "0 to 25", "unit": "%"},
      {"measurement": "IC50", "value": "> 1000", "unit": "nM"}
    ]},
    {"smiles": "CN(C)CCn1ccc2c(NC(=O)Cc3ccc(Cl)c(C(F)(F)F)c3)cccc2c1=O", "note": "[Compound 1385]", "values": [
      {"measurement": "inhibition at 0.3 µM", "value": "≥ 76", "unit": "%"},
      {"measurement": "IC50", "value": 152, "unit": "nM"}
    ]},
    {"smiles": "CN(C)CCn1ccc2c(NC(=O)Cc3ccc(Cl)c(Cl)c3)cccc2c1=O", "note": "[Compound 1386]", "values": [
      {"measurement": "inhibition at 0.3 µM", "value": "51 to 75", "unit": "%"},
      {"measurement": "IC50", "value": 238, "unit": "nM"}
    ]},
    {"smiles": "CN(C)CCn1ccc2c(NC(=O)Cc3ccc(Cl)cc3Cl)cccc2c1=O", "note": "[Compound 1387]", "values": [
      {"measurement": "inhibition at 0.3 µM", "value": "51 to 75", "unit": "%"},
      {"measurement": "IC50", "value": 146, "unit": "nM"}
    ]},
    {"smiles": "CN(C)CCn1ccc2c(NC(=O)CC3(O)CCCCCC3)cccc2c1=O", "note": "[Compound 1388]", "values": [
      {"measurement": "inhibition at 0.3 µM", "value": "0 to 25", "unit": "%"},
      {"measurement": "IC50", "value": "> 1000", "unit": "nM"}
    ]},
    {"smiles": "CN(C)CCn1ccc2c(NC(=O)CC3CCCCCC3)cccc2c1=O", "note": "[Compound 1389]", "values": [
      {"measurement": "inhibition at 0.3 µM", "value": "26 to 50", "unit": "%"},
      {"measurement": "IC50", "value": 311, "unit": "nM"}
    ]},
    {"smiles": "CN(C)CCn1ccc2c(NC(=O)CC3(O)CC(C)(C)CC(C)(C)C3)cccc2c1=O", "note": "[Compound 1390]", "values": [
      {"measurement": "inhibition at 0.3 µM", "value": "≥ 76", "unit": "%"},
      {"measurement": "IC50", "value": 79.3, "unit": "nM"}
    ]},
    {"smiles": "CC(C(=O)Nc1cccc2c(=O)n(CCN(C)C)ccc12)c1ccc(Cl)cc1", "note": "(stereo not shown) [Compound 1391]", "values": [
      {"measurement": "inhibition at 0.3 µM", "value": "≥ 76", "unit": "%"},
      {"measurement": "IC50", "value": 45.7, "unit": "nM"}
    ]},
    {"smiles": "COCCn1ccc2c(NC(=O)Cc3ccc(Cl)c(Cl)c3)cccc2c1=O", "note": "[Compound 1392]", "values": [
      {"measurement": "inhibition at 0.3 µM", "value": "51 to 75", "unit": "%"},
      {"measurement": "IC50", "value": 123, "unit": "nM"}
    ]},
    {"smiles": "COCCn1ccc2c(NC(=O)CC3(O)CC(C)(C)CC(C)(C)C3)cccc2c1=O", "note": "[Compound 1393]", "values": [
      {"measurement": "inhibition at 0.3 µM", "value": "≥ 76", "unit": "%"},
      {"measurement": "IC50", "value": 77.8, "unit": "nM"}
    ]},
    {"smiles": "COc1ccc(C(=O)Nc2cccc3c(=O)n(CC4CCOCC4)ccc23)c(C)c1", "note": "[Compound 1394]", "values": [
      {"measurement": "inhibition at 0.1 µM", "value": "0 to 25", "unit": "%"}
    ]},
    {"smiles": "C[C@H]1CC[C@H](C(=O)Nc2cccc3c(=O)n(CC4CCOCC4)ccc23)CC1", "note": "[Compound 1395]", "values": [
      {"measurement": "inhibition at 0.1 µM", "value": "0 to 25", "unit": "%"}
    ]},
    {"smiles": "Cc1ccccc1CCC(=O)Nc1cccc2c(=O)n(CC3CCOCC3)ccc12", "note": "[Compound 1396]", "values": [
      {"measurement": "inhibition at 0.1 µM", "value": "0 to 25", "unit": "%"}
    ]},
    {"smiles": "CCOc1ccc(C(=O)Nc2cccc3c(=O)n(CCN(C)C)ccc23)c(O)c1", "note": "[Compound 1397]", "values": [
      {"measurement": "inhibition at 0.1 µM", "value": "0 to 25", "unit": "%"}
    ]},
    {"smiles": "COc1ccc(C(=O)Nc2cccc3c(=O)n(CCN(C)C)ccc23)c(C)c1", "note": "[Compound 1398]", "values": [
      {"measurement": "inhibition", "value": "0 to 25", "unit": "%"}
    ]},
    {"smiles": "Cc1ccccc1CCC(=O)Nc1cccc2c(=O)n(CCN(C)C)ccc12", "note": "[Compound 1399]", "values": [
      {"measurement": "inhibition", "value": "0 to 25", "unit": "%"}
    ]},
    {"smiles": "COc1cccc(CCC(=O)Nc2cccc3c(=O)n(CCN(C)C)ccc23)c1", "note": "[Compound 1400]", "values": [
      {"measurement": "inhibition", "value": "26 to 50", "unit": "%"}
    ]},
    {"smiles": "Cc1ccc(C)c(CC(=O)Nc2cccc3c(=O)n(CCN(C)C)ccc23)c1", "note": "[Compound 1401]", "values": [
      {"measurement": "inhibition", "value": "0 to 25", "unit": "%"}
    ]},
    {"smiles": "COc1ccc(C(=O)Nc2cccc3c(=O)n(CCN(C)C)ccc23)cc1Cl", "note": "[Compound 1402]", "values": [
      {"measurement": "inhibition", "value": "0 to 25", "unit": "%"}
    ]},
    {"smiles": "CCOc1ccc(C(=O)Nc2cccc3c(=O)n(CCN4CCOCC4)ccc23)c(O)c1", "note": "[Compound 1403]", "values": [
      {"measurement": "inhibition", "value": "0 to 25", "unit": "%"}
    ]},
    {"smiles": "Cc1ccccc1CCC(=O)Nc1cccc2c(=O)n(CCN3CCOCC3)ccc12", "note": "[Compound 1404]", "values": [
      {"measurement": "inhibition", "value": "0 to 25", "unit": "%"}
    ]},
    {"smiles": "COc1ccc(C(=O)Nc2cccc3c(=O)n(CC(C)(C)C)ccc23)c(C)c1", "note": "[Compound 1405]", "values": [
      {"measurement": "inhibition", "value": "0 to 25", "unit": "%"}
    ]},
    {"smiles": "Cc1ccccc1CCC(=O)Nc1cccc2c(=O)n(Cc3cccnc3)ccc12", "note": "[Compound 1406]", "values": [
      {"measurement": "inhibition", "value": "0 to 25", "unit": "%"}
    ]},
    {"smiles": "CCOc1cccc(C(=O)Nc2cccc3c(=O)n(Cc4cccnc4)ccc23)c1", "note": "[Compound 1407]", "values": [
      {"measurement": "inhibition", "value": "0 to 25", "unit": "%"}
    ]},
    {"smiles": "O=C(Nc1cccc2c(=O)n(CC3CCOCC3)ccc12)c1ccc(-c2ccccc2)cc1", "note": "[Compound 1408]", "values": [
      {"measurement": "inhibition", "value": "0 to 25", "unit": "%"}
    ]},
    {"smiles": "COc1ccccc1CC(=O)Nc1cccc2c(=O)n(CCN(C)C)ccc12", "note": "[Compound 1409]", "values": [
      {"measurement": "inhibition", "value": "0 to 25", "unit": "%"}
    ]},
    {"smiles": "O=C(Nc1cccc2c(=O)n(CCN3CCOCC3)ccc12)c1cccc2ccccc12", "note": "[Compound 1410]", "values": [
      {"measurement": "inhibition", "value": "0 to 25", "unit": "%"}
    ]},
    {"smiles": "O=C(Nc1cccc2c(=O)n(CCN3CCOCC3)ccc12)c1ccc2ccccc2c1", "note": "[Compound 1411]", "values": [
      {"measurement": "inhibition", "value": "0 to 25", "unit": "%"}
    ]},
    {"smiles": "CC(C)(C)Cn1ccc2c(NC(=O)c3cc(Cl)ccc3Cl)cccc2c1=O", "note": "[Compound 1412]", "values": [
      {"measurement": "inhibition", "value": "0 to 25", "unit": "%"}
    ]},
    {"smiles": "Cc1ccccc1C(=O)Nc1cccc2c(=O)n(CC(C)(C)C)ccc12", "note": "[Compound 1413]", "values": [
      {"measurement": "inhibition", "value": "0 to 25", "unit": "%"}
    ]},
    {"smiles": "Cc1ccc(C)c(C(=O)Nc2cccc3c(=O)n(CC(C)(C)C)ccc23)c1", "note": "[Compound 1414]", "values": [
      {"measurement": "inhibition", "value": "0 to 25", "unit": "%"}
    ]},
    {"smiles": "CCOc1ccc(C(=O)Nc2cccc3c(=O)n(CC(C)(C)C)ccc23)cc1", "note": "[Compound 1415]", "values": [
      {"measurement": "inhibition", "value": "0 to 25", "unit": "%"}
    ]},
    {"smiles": "CC(C)(C)Cn1ccc2c(NC(=O)c3ccc(C(C)(C)C)cc3)cccc2c1=O", "note": "[Compound 1416]", "values": [
      {"measurement": "inhibition", "value": "0 to 25", "unit": "%"}
    ]},
    {"smiles": "CC(C)(C)Cn1ccc2c(NC(=O)CCc3ccc(Cl)cc3)cccc2c1=O", "note": "[Compound 1417]", "values": [
      {"measurement": "inhibition", "value": "26 to 50", "unit": "%"}
    ]}
  ]
}
